Common to all, as to type: cell-based
The test system of assay [1] is K562 (human leukemia) cell line. Briefly: Cytotoxicity assay, MTT method, K562. To be noted: for IC50: Homo sapiens, K562 cell line, MTT method; for Inhibition rate (%): Table S12, K562, IC50 rescreen. The protocol: (§1) The cytotoxic activity against the K562 (human leukemia) cell line was evaluated by MTT method, and the cytotoxic activities against L-02 (normal human hepatocytes), ASPC-1 (human pancreatic cancer), MDA-MB-231 (human breast cancer), NCI-H446, and NCI-H446/EP (human small cell lung cancer) cell lines were determined by SRB method. The difference between the two human small-cell lung cancer cell lines is that NCI-H446 is a sensitive cell line while the NCI-H446/EP cell line is resistant to cisplatin, etoposide, SN38, and doxorubicin. As a positive control, doxorubicin was used. […]
(§2) The cytotoxic activity against the K562 (human leukemia) cell line was evaluated by MTT method, and the cytotoxic activities against L-02 (normal human hepato-cytes), ASPC-1 (human pancreatic cancer), MDA-MB-231 (human breast cancer), NCI-H446 and NCI-H446/EP (human small cell lung cancer) cell lines were determined by SRB method.
(§3) Doxorubicin was used as a positive control.
(§4) In the cytotoxic assay, preliminary screening for cytotoxicity of compounds was performed at the concentration of 30 μM, then the compounds with inhibition rate greater than 60 % were rescreened for the IC 50 values. The blank control, vehicle control, positive control (doxorubicin) and compounds at five different concentrations (30, 15, 3.75, 1.875 and 0.9375 μM) were tested three times and the average OD values were taken to calculated IC50 values.
(§5) Table S11. Cytotoxic activities of 1−5
(§6) Compound c Inhibition rate (%) […]
a Doxorubicin was used as positive control.
Table S12. Cytotoxicity against K562 cell line of 5
On the technique in general: Tetrazolium assays rely on reduction of a dye to a coloured formazan, in cell work by metabolically active cells.

Assay [2] relates to L-02 (normal human hepatocytes). Briefly: Cytotoxicity assay, SRB method, L-02. The conditions noted are these: for IC50: Homo sapiens, L02, L-02 cells, SRB method. Here is the method:
as §1, §2, §3, §4, §5, §6
(§7) a Doxorubicin was used as positive control. […]
(In general: The SRB assay estimates cell density from bound dye.)

In assay [3] the test system is ASPC-1 (human pancreatic cancer). Put plainly: Cytotoxicity assay, SRB method, ASPC-1. The conditions noted are these: for IC50: Homo sapiens, ASPC1, ASPC-1 cells, SRB method. Here is the method: as §1, §2, §3, §4, §5, §6, §7
Assay [4] concerns MDA-MB-231 (human breast cancer). Put plainly: Cytotoxicity assay, SRB method, MDA-MB-231. The conditions noted are these: for IC50: Homo sapiens, MDA-MB-231 cells, SRB method. The protocol: as §1, §2, §3, §4, §5, §6, §7
Assay [5] deals with NCI-H446 (human small cell lung cancer) cell line. Put plainly: Cytotoxicity assay, SRB method, NCI-H446. To be noted: for IC50: Homo sapiens, NCI-H446 (sensitive) cells, SRB method; for Inhibition rate (%): Table S13, NCI-H446, IC50 rescreen. Here is the method:
as §1, §2, §3, §4, §5, §6, §7
Table S13. Cytotoxicity against NCI-H446 cell line of 5 c (μM) OD value Inhibition rate (%) IC 50 ( μM)

Assay [6] has as its system NCI-H446/EP (human small cell lung cancer) cell line. Briefly: Cytotoxicity assay, SRB method, NCI-H446/EP. The conditions noted are these: for IC50: Homo sapiens, NCI-H446/EP cells (resistant to cisplatin, etoposide, SN38, doxorubicin), SRB method. The protocol:
as §1, §2, §3, §4, §5, §6, §7

The subject of assay [7] is K562 (human leukemia) cell line. Briefly: Cytotoxicity assay, MTT method, K562. The conditions noted are these: Table S12, K562, IC50 rescreen, c 7.5 μM.
Assay [8] relates to NCI-H446 (human small cell lung cancer) cell line. Briefly: Cytotoxicity assay, SRB method, NCI-H446. To be noted: Table S13, NCI-H446, IC50 rescreen, c 7.5 μM.
The mark [9] stands for this setting: Table S11, preliminary screening, c 30 μM.
Where [10] appears, read: Table S11, positive control, c 1 μM.

What is called IC50 is the concentration that inhibits the measured activity by half. Low values mean inhibition by little substance, high ones a need for much substance. In the case of `CC1C(CCc2nc3ccccc3c(=O)[nH]2)C2CC(=O)C1(C)C(=O)C2(C)O` (stereo not shown) [Compound 1, Chrysoquinazolinone A], the IC50 in assay [1], in assay [2], in assay [3], in assay [4], in assay [5] and in assay [6] was greater than 30 µM each time. The “Inhibition rate (%) K562” value in assay [1] (setting [9]) turned out to be 35.08%. The “Inhibition rate (%) L-02” value in assay [2] (setting [9]) was -0.42%. Further, the “Inhibition rate (%) ASPC-1” value in assay [3] (setting [9]) came to 0.00%. Further, in assay [4] (setting [9]), the “Inhibition rate (%) MDA-MB-231” value was -4.59%. Besides, in assay [5] (setting [9]), the “Inhibition rate (%) NCI-H446” value is listed as 2.22%. Also, the “Inhibition rate (%) NCI-H446/EP” value in assay [6] (setting [9]) is listed as 9.68%.
With `CC(c1nc2ccccc2c(=O)[nH]1)N1CCCC1=O` (stereo not shown) [Compound 2, Chrysoquinazolinone B], the IC50 in assay [1], in assay [2], in assay [3], in assay [4], in assay [5] and in assay [6] was greater than 30 µM in each case. Also, the “Inhibition rate (%) K562” value in assay [1] (setting [9]) was determined as 33.57%. For the same molecule, the “Inhibition rate (%) L-02” value in assay [2] (setting [9]) came out at 0.28%. Further, the “Inhibition rate (%) ASPC-1” value in assay [3] (setting [9]) was 7.93%. Moreover, in assay [4] (setting [9]), the “Inhibition rate (%) MDA-MB-231” value is on record as 5.80%. Further, the “Inhibition rate (%) NCI-H446” value in assay [5] (setting [9]) came out at 4.70%. The “Inhibition rate (%) NCI-H446/EP” value in assay [6] (setting [9]) came out at 12.47%.
For the molecule `Cc1cc(O)c(CC[C@@H](C)C(=O)O)c2scnc12` [Compound 3a, Chrysobenzothiazole A], the half-maximal inhibitory concentration (IC50) in assay [1], in assay [2], in assay [3], in assay [4], in assay [5] and in assay [6] was greater than 30 µM in each case. For the same molecule, in assay [1] (setting [9]), the “Inhibition rate (%) K562” value was found to be 20.39%. Further, the “Inhibition rate (%) L-02” value in assay [2] (setting [9]) came to 10.94%. The “Inhibition rate (%) ASPC-1” value in assay [3] (setting [9]) was 18.16%. Besides, the “Inhibition rate (%) MDA-MB-231” value in assay [4] (setting [9]) is reported as 0.40%. In assay [5] (setting [9]), the “Inhibition rate (%) NCI-H446” value was found to be 1.04%. Besides, the “Inhibition rate (%) NCI-H446/EP” value in assay [6] (setting [9]) came to 11.04%.
Regarding `Cc1cc(O)c(CC[C@H](C)C(=O)O)c2scnc12` [Compound 3b, Chrysobenzothiazole A], the IC50 in assay [1], in assay [2], in assay [3], in assay [4], in assay [5] and in assay [6] was greater than 30 µM each time. In addition, the “Inhibition rate (%) K562” value in assay [1] (setting [9]) stood at 34.54%. For the same molecule, the “Inhibition rate (%) L-02” value in assay [2] (setting [9]) is -5.91%. The “Inhibition rate (%) ASPC-1” value in assay [3] (setting [9]) was found to be 2.09%. Moreover, the “Inhibition rate (%) MDA-MB-231” value in assay [4] (setting [9]) is given as -4.16%. The “Inhibition rate (%) NCI-H446” value in assay [5] (setting [9]) is recorded as 9.14%. Also, the “Inhibition rate (%) NCI-H446/EP” value in assay [6] (setting [9]) came to 14.64%.
For the molecule `Cc1c(O)cc(CCC(C)C(=O)O)c2ncsc12` (stereo not shown) [Compound 4, chrysobenzothiazole B], the 50% inhibitory concentration (IC50) in assay [1], in assay [2], in assay [3], in assay [4], in assay [5] and in assay [6] was greater than 30 µM in each case. In addition, in assay [1] (setting [9]), the “Inhibition rate (%) K562” value was 37.63%. The “Inhibition rate (%) L-02” value in assay [2] (setting [9]) is -1.81%. Further, in assay [3] (setting [9]), the “Inhibition rate (%) ASPC-1” value is 8.56%. Moreover, the “Inhibition rate (%) MDA-MB-231” value in assay [4] (setting [9]) came to 6.32%. Besides, in assay [5] (setting [9]), the “Inhibition rate (%) NCI-H446” value came to 6.55%. The “Inhibition rate (%) NCI-H446/EP” value in assay [6] (setting [9]) was 7.13%.
Take `C/C=C/C=C/C(=O)c1cc(C)c(C(=O)O)c(C)c1O` [Compound 5, 4-Carboxylsorbicillin]: the concentration for half-maximal inhibition (IC50) in assay [1] was 15 µM; in assay [2], greater than 30 µM; in assay [3], greater than 30 µM; in assay [4] it was greater than 30 µM; in assay [5] it was 16.9 µM; in assay [6], greater than 30 µM. For the same molecule, in assay [1] (setting [9]), the “Inhibition rate (%) K562” value is listed as 97.15%. Also, the “Inhibition rate (%)” value in assay [1] (c 0.9375 μM) is reported as 8.60%; in assay [1] (c 1.875 μM), 7.71%; in assay [1] (c 3.75 μM) it was 13.35%; in assay [1] (c 15 μM) it was 47.36%; in assay [1] (c 30 μM), 77.22%; in assay [5] (c 0.9375 μM) it was -8.00%. In addition, the “Inhibition rate (%)” value in assay [5] (c 1.875 μM) was found to be 0.43%; in assay [5] (c 3.75 μM) it was 2.66%; in assay [5] (c 15 μM), 51.20%; in assay [5] (c 30 μM) it was 74.28%; in assay [7] it was 20.85%; in assay [8], 14.10%. The “Inhibition rate (%) L-02” value in assay [2] (setting [9]) is 13.89%. For the same molecule, the “Inhibition rate (%) ASPC-1” value in assay [3] (setting [9]) worked out at 25.47%. Further, in assay [4] (setting [9]), the “Inhibition rate (%) MDA-MB-231” value is listed as -14.63%. Besides, in assay [5] (setting [9]), the “Inhibition rate (%) NCI-H446” value was 86.08%. Moreover, the “Inhibition rate (%) NCI-H446/EP” value in assay [6] (setting [9]) is recorded as 54.99%.
`COc1cccc2c1C(=O)c1c(O)c3c(c(O)c1C2=O)C[C@@](O)(C(=O)CO)C[C@@H]3O[C@H]1C[C@H](N)[C@H](O)[C@H](C)O1` [Doxorubicin, reference compound]: the IC50 was less than 1 µM in assay [1]; less than 1 µM in assay [2]; greater than 1 µM in assay [3]; less than 1 µM in assay [4]; less than 1 µM in assay [5]; greater than 1 µM in assay [6]. Besides, in assay [1] (setting [10]), the “Inhibition rate (%) K562” value came out at 100.00%. Also, in assay [1] (c 1 μM), the “Inhibition rate (%)” value was determined as 100.00%. For the same molecule, in assay [2] (setting [10]), the “Inhibition rate (%) L-02” value is on record as 87.67%. Further, the “Inhibition rate (%) ASPC-1” value in assay [3] (setting [10]) was found to be 29.65%. In assay [4] (setting [10]), the “Inhibition rate (%) MDA-MB-231” value is 65.37%. For the same molecule, the “Inhibition rate (%) NCI-H446” value in assay [5] (setting [10]) amounted to 52.20%. Further, the “Inhibition rate (%) NCI-H446/EP” value in assay [6] (setting [10]) is reported as 27.60%.

(Values after article PMC11595424, “Heterocycles and a Sorbicillinoid from the Coral-Derived Fungus Penicillium chrysogenum” (Marine Drugs, 2024).)
